Test results reported in US20070249620A1, “Urea Derivative” (priority 2004, published 2007).

Legend:
mouse DGAT1 = target: T1, mouse DGAT1 (Mus musculus, UniProt Q9Z2A7); assay: DGAT1 inhibitory effect test (microsome fraction, [14C]-oleoyl-CoA, triglyceride radioactivity by TLC); format: biochemical; settings: 0.5 h; concentration of the test compound 0.1 μg/ml; mouse DGAT1 microsomes, 23° C., 30 minutes; read-out: Inhibitory ratio
T1 construct: made in house; host or cells: insect cells (High Five, Sf9, Sf21, etc.), baculovirus expression system (Invitrogen)
T1 sequence (Q9Z2A7 1-498): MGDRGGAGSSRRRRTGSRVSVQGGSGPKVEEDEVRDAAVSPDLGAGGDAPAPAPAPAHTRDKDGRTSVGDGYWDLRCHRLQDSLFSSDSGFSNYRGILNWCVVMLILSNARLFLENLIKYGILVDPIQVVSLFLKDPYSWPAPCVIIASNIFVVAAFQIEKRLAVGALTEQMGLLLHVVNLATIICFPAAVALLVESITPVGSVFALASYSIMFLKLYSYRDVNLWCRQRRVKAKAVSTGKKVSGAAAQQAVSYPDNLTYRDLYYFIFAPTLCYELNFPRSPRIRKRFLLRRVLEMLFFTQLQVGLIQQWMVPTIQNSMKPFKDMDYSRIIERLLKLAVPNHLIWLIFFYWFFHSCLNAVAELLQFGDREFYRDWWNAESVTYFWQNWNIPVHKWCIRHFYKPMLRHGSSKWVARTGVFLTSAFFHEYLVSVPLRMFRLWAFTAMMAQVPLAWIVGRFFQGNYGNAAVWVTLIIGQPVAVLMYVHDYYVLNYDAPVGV
How it was run: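 Inhibition was scored from radiolabelled triglyceride separated by TLC, relative to vehicle and net of a 0-min background. The reaction ran for 30 min at room temperature (23 °C) in Tris-HCl pH 8.0 with MgCl2, BSA and Triton X-100. Substrates were 30 μM [14C]-oleoyl-CoA and 0.5 mM dioleoylglycerol, with mouse DGAT1 microsomes from baculovirus-infected insect cells as enzyme.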

| SMILES | inhibition at 0.1 µg/mL (mouse DGAT1) | melting point |
| --- | --- | --- |
| COc1ccc(C)cc1NC(=O)Nc1ccc(N2CCN(C(=O)Nc3ccc(OCCO)cc3F)CC2)cc1 [Example 210, 4-{4-[3-(2-methoxy-5-methyl-phenyl)-ureido]-phenyl}-piperazine-1-carboxylic acid [2-fluoro-4-(2-hydroxy-ethoxy)-phenyl]-amide] | ≥ 50% | 214 to 215 °C |
| O=C(Nc1ccc(N2CCN(C(=O)Nc3ccc(OCCO)cc3C(F)(F)F)CC2)cc1)Nc1ccccc1F [Example 211, 4-{4-[3-(2-fluoro-phenyl)-ureido]-phenyl}-piperazine-1-carboxylic acid [4-(2-hydroxy-ethoxy)-2-trifluoromethyl-phenyl]-amide] | ≥ 50% | 219 to 220 °C |
| COc1ccc(F)cc1NC(=O)Nc1ccc(N2CCN(C(=O)Nc3ccc(OCCO)cc3C(F)(F)F)CC2)cc1 [Example 212, 4-{4-[3-(5-fluoro-2-methoxy-phenyl)-ureido]-phenyl}-piperazine-1-carboxylic acid [4-(2-hydroxy-ethoxy)-2-trifluoromethyl-phenyl]-amide] | ≥ 50% | 140 to 141 °C |
| Cc1cnc(NC(=O)Nc2ccc(N3CCN(C(=O)Nc4ccc(OCCO)cc4C(F)(F)F)CC3)cc2)s1 [Example 213, 4-{4-[3-(5-methyl-thiazol-2-yl)-ureido]-phenyl}-piperazine-1-carboxylic acid [4-(2-hydroxy-ethoxy)-2-trifluoromethyl-phenyl]-amide] | ≥ 50% | 118 to 120 °C |
| COc1cccc(NC(=O)Nc2ccc(N3CCN(C(=O)Nc4ccc(OCCO)cc4C(F)(F)F)CC3)cc2)c1 [Example 214, 4-{4-[3-(3-methoxy-phenyl)-ureido]-phenyl}-piperazine-1-carboxylic acid [4-(2-hydroxy-ethoxy)-2-trifluoromethyl-phenyl]-amide] | ≥ 50% | 214 to 215 °C |
| CCOc1cccc(NC(=O)Nc2ccc(N3CCN(C(=O)Nc4ccc(OCCO)cc4C(F)(F)F)CC3)cc2)c1 [Example 215, 4-{4-[3-(3-ethoxy-phenyl)-ureido]-phenyl}-piperazine-1-carboxylic acid [4-(2-hydroxy-ethoxy)-2-trifluoromethyl-phenyl]-amide] | ≥ 50% | 108 to 110 °C |
| COc1cc(NC(=O)Nc2ccc(N3CCN(C(=O)Nc4ccc(OCCO)cc4C(F)(F)F)CC3)cc2)cc(OC)c1 [Example 216, 4-{4-[3-(3,5-dimethoxy-phenyl)-ureido]-phenyl}-piperazine-1-carboxylic acid [4-(2-hydroxy-ethoxy)-2-trifluoromethyl-phenyl]-amide] | ≥ 50% | 209 to 210 °C |
| COc1ccccc1NC(=O)Nc1ccc(N2CCN(C(=O)Nc3ccc(OCCO)cc3C(F)(F)F)CC2)cc1 [Example 217, 4-{4-[3-(2-methoxy-phenyl)-ureido]-phenyl}-piperazine-1-carboxylic acid [4-(2-hydroxy-ethoxy)-2-trifluoromethyl-phenyl]-amide] | ≥ 50% | 118 to 120 °C |
| COc1ccc(C)cc1NC(=O)Nc1ccc(N2CCCN(C(=O)Nc3ccc(OCCO)cc3C(F)(F)F)CC2)cc1 [Example 218, 4-{4-[3-(2-methoxy-5-methyl-phenyl)-ureido]-phenyl}-perhydro-1,4-diazepine-1-carboxylic acid [4-(2-hydroxy-ethoxy)-2-trifluoromethyl-phenyl]-amide] | ≥ 50% | 118 to 120 °C |
| COc1ccc(C)cc1NC(=O)Nc1ccc(N2CCN(C(=O)Nc3ccc(OCCO)cc3C)CC2)nc1 [Example 219, 4-{5-[3-(2-methoxy-5-methyl-phenyl)-ureido]-pyridin-2-yl}-piperazine-1-carboxylic acid [4-(2-hydroxy-ethoxy)-2-methyl-phenyl]-amide] | ≥ 50% | 189 to 190 °C |
| COc1ccc(C)cc1NC(=O)Nc1ccc(N2CCN(C(=O)Nc3ccc(OCCO)cc3C(F)(F)F)CC2)nc1 [Example 220, 4-{5-[3-(2-methoxy-5-methyl-phenyl)-ureido]-pyridin-2-yl}-piperazine-1-carboxylic acid [4-(2-hydroxy-ethoxy)-2-trifluoromethyl-phenyl]-amide] | ≥ 50% | 198 to 200 °C |
| O=C(Nc1ccc(N2CCN(C(=O)Nc3ccc(OCCO)cc3C(F)(F)F)CC2)c(Cl)c1)Nc1ccccc1F [Example 221, 4-{2-chloro-4-[3-(2-fluoro-phenyl)-ureido]-phenyl}-piperazine-1-carboxylic acid [4-(2-hydroxy-ethoxy)-2-trifluoromethyl-phenyl]-amide] | ≥ 50% | 199 to 200 °C |
| O=C(Nc1ccc(N2CCN(C(=O)Nc3ccc(OCCO)cc3C(F)(F)F)CC2)nc1)Nc1ccccc1F [Example 222, 4-{5-[3-(2-fluoro-phenyl)-ureido]-pyridin-2-yl}-piperazine-1-carboxylic acid [4-(2-hydroxy-ethoxy)-2-trifluoromethyl-phenyl]-amide] | ≥ 50% | 193 to 194 °C |
| COc1ccc(F)cc1NC(=O)Nc1ccc(N2CCN(C(=O)Nc3ccc(OCCO)cc3C(F)(F)F)CC2)nc1 [Example 223, 4-{5-[3-(5-fluoro-2-methoxy-phenyl)-ureido]-pyridin-2-yl}-piperazine-1-carboxylic acid [4-(2-hydroxy-ethoxy)-2-trifluoromethyl-phenyl]-amide] | ≥ 50% | 172 to 173 °C |
| CC(C)(C)c1csc(NC(=O)Nc2ccc(N3CCN(C(=O)Nc4ccc(OCCO)cc4C(F)(F)F)CC3)cc2)n1 [Example 224, 4-{4-[3-(4-tert-butyl-thiazol-2-yl)-ureido]-phenyl}-piperazine-1-carboxylic acid [4-(2-hydroxy-ethoxy)-2-trifluoromethyl-phenyl]-amide] | ≥ 50% | 130 to 132 °C |
| Cc1nc(NC(=O)Nc2ccc(N3CCN(C(=O)Nc4ccc(OCCO)cc4C(F)(F)F)CC3)cc2)sc1C [Example 225, 4-{4-[3-(4,5-dimethyl-thiazol-2-yl)-ureido]-phenyl}-piperazine-1-carboxylic acid [4-(2-hydroxy-ethoxy)-2-trifluoromethyl-phenyl]-amide] | ≥ 50% | 166 to 167 °C |
| COc1ccc(C)cc1NC(=O)Nc1ccc2c(c1)CCN(C(=O)Nc1ccc(OCCO)cc1C(F)(F)F)C2 [Example 226, 6-[3-(2-methoxy-5-methyl-phenyl)-ureido]-3,4-dihydro-1H-isoquinoline-2-carboxylic acid [4-(2-hydroxy-ethoxy)-2-trifluoromethyl-phenyl]-amide] | ≥ 50% | 122 to 124 °C |
| O=C(Nc1ccc2c(c1)CCN(C(=O)Nc1ccc(OCCO)cc1C(F)(F)F)C2)Nc1ccccc1F [Example 227, 6-[3-(2-fluoro-phenyl)-ureido]-3,4-dihydro-1H-isoquinoline-2-carboxylic acid [4-(2-hydroxy-ethoxy)-2-trifluoromethyl-phenyl]-amide] | ≥ 50% | 162 to 164 °C |
